Measured values as given in patent publication US9573957B2 (Boehringer Ingelheim International GmbH, priority 2013, dated 2017).

Assays:
human LTA4 hydrolase = human LTA4 hydrolase (Homo sapiens (Human), UniProt P09960); test: LTA4H Enzyme assay (peptidase, Arg-AMC cleavage); assay type: biochemical; settings: LTA4H Enzyme 1 nM, Arg-AMC substrate 50 μM, room temperature 1 h, fluorescence
In short: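 Aminomethylcoumarin release measured fluorimetrically (380/460 nm) after 1 h at room temperature. Reaction: 1 nM final enzyme, 50 μM final Arg-AMC and compound in Tris-HCl pH 7.5 with 100 mM KCl and 0.5% BSA.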

[1] = test system: synthesis of LTB4 in human whole blood; test: LTB4 production inhibition assay in human whole blood (HWB); assay type: cell-based; settings: heparinized human whole blood, 15 min at 37° C., Calcimycin 20 μM 30 min, plasma LTB4 by HTRF
In short: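 LTB4 in plasma read by HTRF immunoassay after centrifugation. Before that, compound sat with heparinized human whole blood 15 min at 37° C, followed by 30 min at 37° C with 20 μM (final) calcimycin.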

human LTA4 hydrolase, sequence (P09960 whole entry): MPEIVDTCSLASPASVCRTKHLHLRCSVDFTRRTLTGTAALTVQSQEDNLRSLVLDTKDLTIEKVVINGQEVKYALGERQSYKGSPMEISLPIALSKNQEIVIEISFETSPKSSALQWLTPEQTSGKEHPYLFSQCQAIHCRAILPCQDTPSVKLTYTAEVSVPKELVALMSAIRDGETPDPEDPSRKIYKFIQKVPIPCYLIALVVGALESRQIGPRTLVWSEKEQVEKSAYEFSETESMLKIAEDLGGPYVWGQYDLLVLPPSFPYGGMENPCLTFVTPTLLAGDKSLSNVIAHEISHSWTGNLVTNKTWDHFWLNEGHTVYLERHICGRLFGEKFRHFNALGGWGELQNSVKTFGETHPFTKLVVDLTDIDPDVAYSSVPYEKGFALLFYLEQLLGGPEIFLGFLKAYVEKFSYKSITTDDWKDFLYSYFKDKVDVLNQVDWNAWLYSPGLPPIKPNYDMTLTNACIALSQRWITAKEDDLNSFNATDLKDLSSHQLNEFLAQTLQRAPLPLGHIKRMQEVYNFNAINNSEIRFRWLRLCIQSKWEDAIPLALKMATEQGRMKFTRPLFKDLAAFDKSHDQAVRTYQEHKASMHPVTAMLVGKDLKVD

| SMILES | IC50 (human LTA4 hydrolase) | IC50 [1] |
| --- | --- | --- |
| C[C@H](O)C(=O)N1CCN(Cc2ccc3cc(Oc4ncc(-c5ccn[nH]5)cn4)ccc3c2)CC1 [Example 30, (S)-2-Hydroxy-1-(4-{6-[5-(2H-pyrazol-3-yl)-pyrimidin-2-yloxy]-naphthalen-2-ylmethyl}-piperazin-1-yl)-propan-1-one] | 1.3 nM | 230 nM |
| NC(=O)C1CN(Cc2ccc3cc(Oc4ccc(-c5ccn[nH]5)cn4)ccc3c2)C1 [Example 2, 1-{6-[5-(2H-Pyrazol-3-yl)-pyridin-2-yloxy]-naphthalen-2-ylmethyl}-azetidine-3-carboxylic acid amide] | 0.46 nM | 210 nM |
| CN(C)C(=O)C1CCN(Cc2ccc3cc(Oc4ncc(-c5ccn[nH]5)cn4)ccc3c2)CC1 [Example 38, 1-{6-[5-(2H-Pyrazol-3-yl)-pyrimidin-2-yloxy]-naphthalen-2-ylmethyl}-piperidine-4-carboxylic acid dimethylamide] | 1.2 nM | 180 nM |
| CCC(=O)N1CCN(Cc2ccc3cc(Oc4ncc(-c5ccn[nH]5)cn4)ccc3c2)CC1 [Example 37, 1-(4-{6-[5-(2H-Pyrazol-3-yl)-pyrimidin-2-yloxy]-naphthalen-2-ylmethyl}-piperazin-1-yl)-propan-1-one] | 0.43 nM | 120 nM |
| O[C@H]1CCN(Cc2ccc3cc(Oc4ccc(-c5ccn[nH]5)cn4)ccc3c2)C1 [Example 5, (S)-1-{6-[5-(2H-Pyrazol-3-yl)-pyridin-2-yloxy]-naphthalen-2-ylmethyl}-pyrrolidin-3-ol] | 0.6 nM | 130 nM |
| CC(C)C(=O)N1CCN(Cc2ccc3cc(Oc4ncc(-c5ccn[nH]5)cn4)ccc3c2)CC1 [Example 41, 2-Methyl-1-(4-{6-[5-(2H-pyrazol-3-yl)-pyrimidin-2-yloxy]-naphthalen-2-ylmethyl}-piperazin-1-yl)-propan-1-one] | 0.97 nM | 430 nM |

The next lines start with the values.

| IC50 (human LTA4 hydrolase) | IC50 [1] | SMILES |
| --- | --- | --- |
| 2 nM | 680 nM | N#CCCNCc1ccc2cc(Oc3ccc(-c4ccn[nH]4)cn3)ccc2n1 [Example 43, 3-({6-[5-(2H-Pyrazol-3-yl)-pyridin-2-yloxy]-quinolin-2-ylmethyl}-amino)-propionitrile] |
| 1.2 nM | 340 nM | CC(C)(O)C(=O)N1CCN(Cc2ccc3cc(Oc4ccc(-c5ccn[nH]5)cn4)ccc3n2)CC1 [Example 125, 2-Hydroxy-2-methyl-1-(4-{6-[5-(2H-pyrazol-3-yl)-pyridin-2-yloxy]-quinolin-2-ylmethyl}-piperazin-1-yl)-propan-1-one] |
| 0.66 nM | 150 nM | O=C(CO)N1CCC2(CCN(Cc3ccc4cc(Oc5ccc(-c6ccn[nH]6)cn5)ccc4n3)C2)C1 (centres unmarked) [Example 102, 2-Hydroxy-1-(7-{6-[5-(2H-pyrazol-3-yl)-pyridin-2-yloxy]-quinolin-2-ylmethyl}-2,7-diaza-spiro[4.4]non-2-yl)-ethanone] |
| 2 nM | 230 nM | CN(Cc1ccc2cc(Oc3ccc(-c4ccn[nH]4)cn3)ccc2n1)[C@H]1CCN(C(=O)CO)C1 [Example 101, 2-Hydroxy-1-[(S)-3-(methyl-{6-[5-(2H-pyrazol-3-yl)-pyridin-2-yloxy]-quinolin-2-ylmethyl}-amino)-pyrrolidin-1-yl]-ethanone] |
| 1.7 nM | 490 nM | CS(=O)(=O)N1CCN(CCC2COc3cc(Oc4ccc(-c5ccn[nH]5)cn4)ccc32)CC1 (centres unmarked) [Example 71, 1-Methanesulfonyl-4-(2-{6-[5-(2H-pyrazol-3-yl)-pyridin-2-yloxy]-2,3-dihydro-benzofuran-3-yl}-ethyl)-piperazine] |
| 3.4 nM | 750 nM | N#CC1(C(=O)N2CCN(Cc3ccc4cc(Oc5ccc(-c6ccn[nH]6)cn5)ccc4n3)CC2)CCC1 [Example 146, 1-(4-{6-[5-(2H-Pyrazol-3-yl)-pyridin-2-yloxy]-quinolin-2-ylmethyl}-piperazine-1-carbonyl)-cyclobutanecarbonitrile] |
| 2.2 nM | 210 nM | OC1CN(Cc2ccc3cc(Oc4ncc(-c5ccn[nH]5)cn4)ccc3c2)C1 [Example 49, 1-{6-[5-(2H-Pyrazol-3-yl)-pyrimidin-2-yloxy]-naphthalen-2-ylmethyl}-azetidin-3-ol] |
